Experimental data published in patent US20090186874A1, “Carboxamide derivative and use thereof” (priority 2004, published 2009).
Where a name gives a salt, the structure may show the parent alone.

target: T1, substance P receptor (Homo sapiens, UniProt P25103); test: Radioligand receptor binding inhibitory activity (125I-BHSP binding to receptor from IM-9 cells); conditions: receptor from human lymphoblast cells (IM-9); radioligand 125I-BHSP; 25° C., 30 minutes
T1 construct: The receptor was prepared from human lymphoblast cells (IM-9); endogenous in cells; host or cells: IM-9 human lymphoblast cells (membrane preparation)
T1 sequence (P25103 whole entry): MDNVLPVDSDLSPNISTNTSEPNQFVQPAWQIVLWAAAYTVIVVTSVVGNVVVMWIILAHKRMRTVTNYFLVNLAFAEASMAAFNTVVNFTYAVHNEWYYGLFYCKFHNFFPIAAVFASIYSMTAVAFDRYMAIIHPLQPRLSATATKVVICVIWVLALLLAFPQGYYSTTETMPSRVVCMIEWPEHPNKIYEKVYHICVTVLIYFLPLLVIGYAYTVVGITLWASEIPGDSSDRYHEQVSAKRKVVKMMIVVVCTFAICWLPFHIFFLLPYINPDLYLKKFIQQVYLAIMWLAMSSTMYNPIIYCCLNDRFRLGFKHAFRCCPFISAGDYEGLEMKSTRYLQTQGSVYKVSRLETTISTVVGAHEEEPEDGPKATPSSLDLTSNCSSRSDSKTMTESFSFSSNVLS
Experimental: Radioligand receptor binding inhibitory activity (Binding inhibitory activity using receptor from human lymphoblast cells (IM-9))
The residue was washed twice with 30 mL of the above-mentioned buffer, which was then preserved frozen (−80° C.) as a specimen of the receptor.
The specimen was suspended in a reaction buffer (50 mM Tri-HCl buffer (pH 7.4), 0.02% bovine serum albumin, 1 mM phenylmethylsulfonyl fluoride, 2 μg/mL chymostatin, 40 μg/mL bacitracin and 3 mM manganese chloride) to have protein in the concentration of 0.5 mg/mL of protein and 100 μl portion of the suspension was used in the reaction. […] The amount of nonspecific binding was determined by adding substance P at a final concentration of 2×10^−6 M.
After the reaction, using a cell harvester (290 PHD, Cambridge Technology, Inc, U.S.A.), filtration was carried out through a glass filter (GF/B, Whatman, U.S.A.), which was immersed in 0.1% polyethyleneimine for 24 hours and dried. After washing three times with 250 μL of 50 mM Tris-HCl buffer (pH 7.4) containing 0.02% bovine serum albumin, the radioactivity remaining on the filter was determined with a gamma counter.

Structure (SMILES)	IC50
Cc1cc(F)ccc1[C@@H]1CNCC[C@H]1C(=O)N(C)Cc1cc(C(F)(F)F)cc(C(F)(F)F)c1 (relative stereo) [Example 12, (3R*,4R*)-N-[3,5-bis(trifluoromethyl)benzyl]-3-(4-fluoro-2-methylphenyl)-N-methylpiperidine-4-carboxamide hydrochloride]	0.051 nM
CC(=O)N1CCC(C(=O)N2CC[C@H](C(=O)N(C)Cc3cc(C(F)(F)F)cc(C(F)(F)F)c3)[C@H](c3ccccc3)C2)CC1 (relative stereo) [Example 30, (3R*,4S*)-1-[(1-acetylpiperidin-4-yl)carbonyl]-N-[3,5-bis(trifluoromethyl)benzyl]-N-methyl-3-phenylpiperidine-4-carboxamide]	0.049 nM
CC(=O)N1CCC(C(=O)N2CC[C@@H](C(=O)N(C)Cc3cc(C(F)(F)F)cc(C(F)(F)F)c3)[C@H](c3ccccc3)C2)CC1 (relative stereo) [Example 35, (3R*,4R*)-1-[(1-acetylpiperidin-4-yl)carbonyl]-N-[3,5-bis(trifluoromethyl)benzyl]-N-methyl-3-phenylpiperidine-4-carboxamide]	0.098 nM
COCC(=O)N1CC[C@@H](C(=O)N(C)Cc2cc(C(F)(F)F)cc(C(F)(F)F)c2)[C@H](c2ccc(F)cc2C)C1 (relative stereo) [Example 40, (3R*,4R*)-N-[3,5-bis(trifluoromethyl)benzyl]-3-(4-fluoro-2-methylphenyl)-1-(methoxyacetyl)-N-methylpiperidine-4-carboxamide]	0.058 nM
CCN(CC)CCC(=O)N1CC[C@@H](C(=O)N(C)Cc2cc(C(F)(F)F)cc(C(F)(F)F)c2)[C@H](c2ccc(F)cc2C)C1 (relative stereo) [Example 41, (3R*,4R*)-N-[3,5-bis(trifluoromethyl)benzyl]-1-(N,N-diethyl-β-alanyl)-3-(4-fluoro-2-methylphenyl)-N-methylpiperidine-4-carboxamide Hydrochloride]	0.025 nM
Cc1cc(F)ccc1[C@@H]1CN(C(=O)Cn2cnnn2)CC[C@H]1C(=O)N(C)Cc1cc(C(F)(F)F)cc(C(F)(F)F)c1 (relative stereo) [Example 42, (3R*,4R*)-N-[3,5-bis(trifluoromethyl)benzyl]-3-(4-fluoro-2-methylphenyl)-N-methyl-1-(1H-tetrazol-1-ylacetyl)piperidine-4-carboxamide]	0.022 nM

Second part, the compound after the results:

IC50	Structure (SMILES)
0.064 nM	Cc1cc(F)ccc1[C@@H]1CN(C(=O)CC2NC(=O)NC2=O)CC[C@H]1C(=O)N(C)Cc1cc(C(F)(F)F)cc(C(F)(F)F)c1 (relative stereo) [Example 43, (3R*,4R*)-N-[3,5-bis(trifluoromethyl)benzyl]-1-[(2,5-dioxoimidazolidin-4-yl)acetyl]-3-(4-fluoro-2-methylphenyl)-N-methylpiperidine-4-carboxamide]
0.019 nM	CC(=O)N1CCC(C(=O)N2CC[C@H](C(=O)N(C)Cc3cc(C(F)(F)F)cc(C(F)(F)F)c3)[C@H](c3ccc(F)cc3)C2)CC1 (relative stereo) [Example 44, (3R*,4S*)-1-[(1-acetylpiperidin-4-yl)carbonyl]-N-[3,5-bis(trifluoromethyl)benzyl]-3-(4-fluorophenyl)-N-methylpiperidine-4-carboxamide]
0.052 nM	CC(=O)N1CCC(C(=O)N2CC[C@@H](C(=O)N(C)Cc3cc(C(F)(F)F)cc(C(F)(F)F)c3)[C@H](c3ccc(F)cc3)C2)CC1 (relative stereo) [Example 45, (3R*,4R*)-1-[(1-acetylpiperidin-4-yl)carbonyl]-N-[3,5-bis(trifluoromethyl)benzyl]-3-(4-fluorophenyl)-N-methylpiperidine-4-carboxamide]
0.047 nM	CC(=O)N1CCC(C(=O)N2CC[C@@H](C(=O)N(C)Cc3cc(C(F)(F)F)cc(C(F)(F)F)c3)[C@H](c3ccc(F)cc3C)C2)CC1 (relative stereo) [Example 46, (3R*,4R*)-1-[(1-acetylpiperidin-4-yl)carbonyl]-N-[3,5-bis(trifluoromethyl)benzyl]-3-(4-fluoro-2-methylphenyl)-N-methylpiperidine-4-carboxamide]
0.036 nM	Cc1cc(F)ccc1[C@@H]1CN(Cc2n[nH]c(=O)[nH]2)CC[C@H]1C(=O)N(C)Cc1cc(C(F)(F)F)cc(C(F)(F)F)c1 (relative stereo) [Example 54, (3R*,4R*)-N-[3,5-bis(trifluoromethyl)benzyl]-3-(4-fluoro-2-methylphenyl)-N-methyl-1-[(5-oxo-4,5-dihydro-1H-1,2,4-triazol-3-yl)methyl]piperidine-4-carboxamide]
0.052 nM	Cc1cc(F)ccc1[C@@H]1CN(C(=O)C(N)=O)CC[C@H]1C(=O)N(C)Cc1cc(C(F)(F)F)cc(C(F)(F)F)c1 (relative stereo) [Example 73, (3R*,4R*)-1-[amino(oxo)acetyl]-N-[3,5-bis(trifluoromethyl)benzyl]-3-(4-fluoro-2-methylphenyl)-N-methylpiperidine-4-carboxamide]
0.035 nM	Cc1cc(F)ccc1[C@@H]1CN(C(N)=O)CC[C@H]1C(=O)N(C)Cc1cc(C(F)(F)F)cc(C(F)(F)F)c1 (relative stereo) [Example 75, (3R*,4R*)-N^4-[3,5-bis(trifluoromethyl)benzyl]-3-(4-fluoro-2-methylphenyl)-N^4-methylpiperidine-1,4-dicarboxamide]
0.043 nM	CC(=O)NCC(=O)N1CC[C@@H](C(=O)N(C)Cc2cc(C(F)(F)F)cc(C(F)(F)F)c2)[C@H](c2ccc(F)cc2C)C1 (relative stereo) [Example 77, (3R*,4R*)-1-(N-acetylglycyl)-N-[3,5-bis(trifluoromethyl)benzyl]-3-(4-fluoro-2-methylphenyl)-N-methylpiperidine-4-carboxamide]
